Assay results published in the CheMixHub viscosity set.
± gives the uncertainty stated by the source.

Assay: xn = mol fraction of the nth substance listed

COCCOCCOC + CCCCCCC
viscosity [mPa·s], 101.33 kPa
Conditions | x1 = 0.0978 | x1 = 0.197 | x1 = 0.2958 | x1 = 0.3834 | x1 = 0.4946 | x1 = 0.594 | x1 = 0.6956 | x1 = 0.7955 | x1 = 0.8992
298.15 K | 0.407 ± 0.012 | 0.436 ± 0.013 | 0.471 ± 0.013 | 0.508 ± 0.014 | 0.562 ± 0.015 | 0.619 ± 0.017 | 0.689 ± 0.018 | 0.768 ± 0.02 | 0.871 ± 0.022
303.15 K | 0.386 ± 0.012 | 0.412 ± 0.012 | 0.444 ± 0.013 | 0.478 ± 0.014 | 0.527 ± 0.015 | 0.58 ± 0.016 | 0.643 ± 0.017 | 0.714 ± 0.019 | 0.807 ± 0.021
308.15 K | 0.367 ± 0.011 | 0.39 ± 0.012 | 0.421 ± 0.012 | 0.451 ± 0.013 | 0.5 ± 0.014 | 0.545 ± 0.015 | 0.602 ± 0.016 | 0.668 ± 0.018 | 0.751 ± 0.019
313.15 K | 0.351 ± 0.011 | 0.371 ± 0.011 | 0.398 ± 0.012 | 0.426 ± 0.012 | 0.468 ± 0.013 | 0.513 ± 0.014 | 0.566 ± 0.015 | 0.627 ± 0.017 | 0.7 ± 0.018
318.15 K | 0.333 ± 0.01 | 0.354 ± 0.011 | 0.378 ± 0.011 | 0.404 ± 0.012 | 0.443 ± 0.013 | 0.484 ± 0.014 | 0.532 ± 0.015 | 0.587 ± 0.016 | 0.656 ± 0.017

COCCOCCOC + COC(C)=O
viscosity [mPa·s], 101.33 kPa
Conditions | x1 = 0.1 | x1 = 0.198 | x1 = 0.2969 | x1 = 0.4015 | x1 = 0.4988 | x1 = 0.5951 | x1 = 0.6954 | x1 = 0.7941 | x1 = 0.8973
298.15 K | 0.441 ± 0.007 | 0.498 ± 0.007 | 0.559 ± 0.008 | 0.621 ± 0.009 | 0.683 ± 0.01 | 0.741 ± 0.01 | 0.801 ± 0.011 | 0.861 ± 0.012 | 0.922 ± 0.013
303.15 K | 0.418 ± 0.007 | 0.47 ± 0.007 | 0.526 ± 0.008 | 0.582 ± 0.009 | 0.639 ± 0.009 | 0.691 ± 0.01 | 0.746 ± 0.011 | 0.799 ± 0.011 | 0.855 ± 0.012
308.15 K | 0.396 ± 0.006 | 0.445 ± 0.007 | 0.496 ± 0.007 | 0.548 ± 0.008 | 0.6 ± 0.009 | 0.646 ± 0.009 | 0.696 ± 0.01 | 0.745 ± 0.011 | 0.795 ± 0.011
313.15 K | 0.376 ± 0.006 | 0.418 ± 0.007 | 0.469 ± 0.007 | 0.516 ± 0.008 | 0.564 ± 0.008 | 0.607 ± 0.009 | 0.652 ± 0.009 | 0.697 ± 0.01 | 0.741 ± 0.01

C[N+](C)(C)CCO.O=C([O-])C(F)(F)F + O
Conditions | viscosity [mPa·s]
298 K, 101.33 kPa, x2 = 0.8 | 7.7

C=CC(C)O (centres undefined) + O
viscosity [mPa·s], 101.32 kPa
Conditions | x1 = 0.1003 | x1 = 0.2 | x1 = 0.3004 | x1 = 0.4 | x1 = 0.5013 | x1 = 0.601 | x1 = 0.7012 | x1 = 0.8046 | x1 = 0.9031
308.15 K | 1.553 ± 0.024 | 1.858 ± 0.029 | 1.854 ± 0.029 | 1.765 ± 0.028 | 1.682 ± 0.027 | 1.566 ± 0.026 | 1.457 ± 0.025 | 1.387 ± 0.024 | 1.331 ± 0.024
313.15 K | 1.347 ± 0.021 | 1.617 ± 0.025 | 1.612 ± 0.025 | 1.535 ± 0.025 | 1.461 ± 0.024 | 1.369 ± 0.023 | 1.28 ± 0.022 | 1.231 ± 0.022 | 1.171 ± 0.021
318.15 K | 1.189 ± 0.019 | 1.405 ± 0.022 | 1.404 ± 0.023 | 1.345 ± 0.022 | 1.281 ± 0.021 | 1.209 ± 0.021 | 1.13 ± 0.02 | 1.08 ± 0.019 | 1.044 ± 0.019
323.15 K | 1.049 ± 0.017 | 1.243 ± 0.02 | 1.24 ± 0.02 | 1.187 ± 0.02 | 1.138 ± 0.019 | 1.078 ± 0.019 | 1.007 ± 0.018 | 0.9691 ± 0.018 | 0.9323 ± 0.017

CCCCCCN + Cc1ccccc1
303.15 K, 101 kPa
Conditions | viscosity [mPa·s]
x2 = 0.1238 | 0.6558 ± 0.0056
x2 = 0.2561 | 0.6124 ± 0.0053
x2 = 0.3598 | 0.5834 ± 0.0051
x2 = 0.4481 | 0.5588 ± 0.0049
x2 = 0.5709 | 0.5327 ± 0.0047
x2 = 0.6774 | 0.5177 ± 0.0045
x2 = 0.7639 | 0.5072 ± 0.0045
x2 = 0.8616 | 0.5035 ± 0.0044
x2 = 0.9319 | 0.5102 ± 0.0045

ClC(Cl)C(Cl)Cl + CCCCCCC
303.15 K, 101 kPa
Conditions | viscosity [mPa·s]
x1 = 0.1397 | 0.398 ± 0.004
x1 = 0.2476 | 0.472 ± 0.005
x1 = 0.3744 | 0.564 ± 0.006
x1 = 0.4722 | 0.643 ± 0.006
x1 = 0.5731 | 0.727 ± 0.007
x1 = 0.6565 | 0.8 ± 0.008
x1 = 0.7428 | 0.896 ± 0.009
x1 = 0.8309 | 1.023 ± 0.01
x1 = 0.9008 | 1.165 ± 0.011
x1 = 0.9406 | 1.267 ± 0.012

COCCOCCOC + CC(C)CO
viscosity [mPa·s], 101 kPa
Conditions | x1 = 0.104 | x1 = 0.2048 | x1 = 0.3058 | x1 = 0.4023 | x1 = 0.5027 | x1 = 0.605 | x1 = 0.7019 | x1 = 0.8023 | x1 = 0.9024
298.15 K | 2.146 ± 0.013 | 1.635 ± 0.01 | 1.377 ± 0.009 | 1.231 ± 0.008 | 1.136 ± 0.007 | 1.076 ± 0.007 | 1.038 ± 0.007 | 1.011 ± 0.007 | 0.995 ± 0.007
308.15 K | 1.649 ± 0.01 | 1.302 ± 0.008 | 1.121 ± 0.007 | 1.013 ± 0.007 | 0.947 ± 0.006 | 0.904 ± 0.006 | 0.876 ± 0.006 | 0.856 ± 0.006 | 0.846 ± 0.006
318.15 K | 1.284 ± 0.008 | 1.047 ± 0.007 | 0.938 ± 0.006 | 0.845 ± 0.006 | 0.796 ± 0.005 | 0.78 ± 0.005 | 0.747 ± 0.005 | 0.733 ± 0.005 | 0.726 ± 0.005

COCCOCCOC + ClC(Cl)(Cl)Cl
298.15 K, 101.33 kPa
Conditions | viscosity [mPa·s]
x1 = 0.0934 | 0.965 ± 0.009
x1 = 0.1967 | 0.995 ± 0.009
x1 = 0.3018 | 1.023 ± 0.009
x1 = 0.4053 | 1.044 ± 0.009
x1 = 0.4892 | 1.059 ± 0.009
x1 = 0.5352 | 1.06 ± 0.009
x1 = 0.592 | 1.057 ± 0.009
x1 = 0.6503 | 1.052 ± 0.009
x1 = 0.6902 | 1.043 ± 0.009
x1 = 0.7963 | 1.031 ± 0.009
x1 = 0.8656 | 1.019 ± 0.009
x1 = 0.9021 | 1.011 ± 0.009
x1 = 0.9343 | 1.001 ± 0.009

CC[n+]1ccccc1.N#C[N-]C#N + CCCO
Conditions | viscosity [mPa·s]
313.15 K, 100 kPa, x1 = 0.8905 | 9.945 ± 1

ClC(Cl)C(Cl)Cl + C=C(C)C(=O)OC
303.15 K, 101 kPa
Conditions | viscosity [mPa·s]
x2 = 0.0942 | 1.422 ± 0.011
x2 = 0.1967 | 1.317 ± 0.011
x2 = 0.2785 | 1.235 ± 0.01
x2 = 0.4978 | 0.9971 ± 0.0085
x2 = 0.598 | 0.8879 ± 0.0079
x2 = 0.7131 | 0.7662 ± 0.0071
x2 = 0.905 | 0.5902 ± 0.0062

ClC(Cl)C(Cl)Cl + CCOC(C)=O
303.15 K, 101.3 kPa
Conditions | viscosity [mPa·s]
x2 = 0.15 | 1.358 ± 0.0096
x2 = 0.2009 | 1.306 ± 0.0093
x2 = 0.3141 | 1.18 ± 0.0085
x2 = 0.3963 | 1.08 ± 0.008
x2 = 0.4968 | 0.9507 ± 0.0073
x2 = 0.5996 | 0.8225 ± 0.0066
x2 = 0.7128 | 0.6857 ± 0.006
x2 = 0.8056 | 0.5773 ± 0.0055
x2 = 0.9246 | 0.4625 ± 0.0051
